From US10738062B2, “Chromane-substituted tetracyclic compounds and uses thereof for the treatment of viral diseases” (Merck Sharp & Dohme Corp., priority 2016, dated 2020)
Where two headings read alike, the source gives them in different places.

Key:
Parameters in all cases: species or system Hepatitis C virus
[1] = system: HCV replicon 1A Y93H; assay: Cell-based HCV replicon assay (Replicon Assay A), replicon 1AY93H; settings: replicon RNA by real time PCR, day 3
Method: (§1) To measure cell-based anti-HCV activity of compounds of the present invention, two complimentary assays were employed using various replicons. In the first assay (“Replicon Assay A”), replicon cells were seeded at 2000 cells/well in 384-well 384-well flat bottom tissue culture treated clear bottom plate (Corning 3707) in the presence of the test compound. Various concentrations of test compound, typically in 10 serial dilutions, were added to the assay mixture, with the starting concentration ranging from 333.3 nM to 1.667 nM. The final concentration of DMSO was 0.5%. Fetal bovine serum was 5%, in the assay media. Cells were harvested on day 3 by removing media and washing the cells with a suitable wash buffer. The cells were lysed with the addition of 1× Qiagen lysis buffer (Cat #1062731). The replicon RNA level was measured using real time PCR (TaqMan® EZ RT-PCR, Applied Biosystems 403028) with the following primers and probes: […]
(§2) Cyclophilin RNA was used as endogenous control and was amplified in the same reaction as NS5B (multiplex PCR). The real-time RT-PCR reactions were run on ABI PRISM 7900HT Sequence Detection System using the following program: 50° C. for 2 minutes, 60° C. for 30 minutes, 95° C. for 5 minutes, 40 cycles of 94° C. for 20 sec, 55° C. for 1 minutes.
(§3) The amount of HCV replicon RNA per cell was quantified using a linear regression curve for a known nanogram (ng) amount of HCV replicon total RNA. This was established by plotting the Cycle Threshold values (Ct) from the Neo probe and primer set versus the log (ng) for each HCV replicon total RNA standard. The amount of HCV RNA for each replicon sample was calculated by taking the sample's Ct value, minus the line intercept, divided by the slope of the line. Similarly, the amount of Cyclophilin mRNA per cell was also quantified using a linear regression curve for a known nanogram (ng) amount of HCV replicon total RNA. Again, this was established by plotting the Cycle Threshold values (Ct) from the Cyclophilin probe and primer set versus the log (ng) for each HCV replicon total RNA standard.
(§4) The real-time RT-PCR reactions were run on ABI PRISM 7900HT or Viia7 Sequence Detection System using the following program: 48° C. for 30 minutes, 95° C. for 10 minutes, 40 cycles of 95° C. for 15 sec, 60° C. for 1 minutes. The 50% effective concentration (EC50) was the drug concentration necessary to achieve an increase in the cycle threshold (CT) of 1 over the projected baseline CT.
(§5) Data was obtained for various compounds of the present invention using the methods described in the Example above, and is presented in the table immediately below. EC50 data for replicons 1A, 1AY93H and 2B were obtained using Replicon Assay A and EC50 data for replicon 1B was obtained using Replicon Assay B.

[2] = system: HCV replicon 2B; assay: Cell-based HCV replicon assay (Replicon Assay A), replicon 2B; settings: replicon RNA by real time PCR, day 3
Method: as §1, §2, §3, §4, §5

[3] = system: HCV replicon 1A; assay: Cell-based HCV replicon assay (Replicon Assay A), replicon 1A; settings: replicon RNA by real time PCR, day 3
Method: as §1, §2, §3, §4, §5

[4] = system: HCV replicon 1B; assay: Cell-based HCV replicon assay (Replicon Assay B), replicon 1B; settings: replicon RNA by real-time PCR, 3 days
Method: In an alternate assay (“Replicon Assay B”), 1000 cells were seeded per well in a 384-well collagen coated black plate from Greiner bio-one (Cat #781946) in 5% FBS. Inhibitors of this invention were added at 24 h post-seeding, and the plates were incubated for 3 days. Cells were subsequently lysed with Qiagen lysis buffer (Cat #1062731) to extract the RNA. HCV replicon RNA level was measured by real-time PCR using the RNA-to-CT kit from Applied Biosystem (Cat #4392656) and genotype-specific primers and probes. The amplicon was located within NS5B. […] (SEQ. ID NO. 2); the probe sequence was FAM-labeled […] (SEQ. ID NO. 3).
The real-time RT-PCR reactions were run on ABI PRISM 7900HT or Viia7 Sequence Detection System using the following program: 48° C. for 30 minutes, 95° C. for 10 minutes, 40 cycles of 95° C. for 15 sec, 60° C. for 1 minutes.
EC50 data for replicons 1A, 1AY93H and 2B were obtained using Replicon Assay A and EC50 data for replicon 1B was obtained using Replicon Assay B.

[5] = read-out: EC50 replicon 1A Y93H, Replicon Assay A
[6] = read-out: EC50 replicon 2B, Replicon Assay A
[7] = Hepatitis C virus, 72 h, read-out: EC50 replicon 2B, Replicon Assay A

Structure (SMILES) | EC50 [1, 5] | EC50 [2, 6] | EC50 [3] | EC50 [4] | EC50 ([3]; Hepatitis C virus, 72 h) | EC50 ([4]; Hepatitis C virus, 72 h) | EC50 [2, 7] | EC50 ([1]; Hepatitis C virus, 72 h, read-out: EC50 replicon 1A Y93H, Replicon Assay A)
COC(=O)N[C@H](C(=O)N1CCC[C@H]1c1ncc(-c2ccc3c(c2)OC(c2ccc4c(c2)CCCO4)n2c-3cc3cc(-c4cnc([C@@H]5C[C@H]6C[C@H]6N5C(=O)[C@@H](NC(=O)OC)C(C)C)[nH]4)ccc32)[nH]1)C(C)C (single isomer, unassigned) [Compound 52] | 454 pM | 1670 pM | 2.2 pM | 3.1 pM |  |  |  | 
CCO[C@H](C)[C@H](NC(=O)OC)C(=O)N1CCC[C@H]1c1ncc(-c2cc(F)c3c(c2)OC(c2ccc4c(c2)OCCC4)n2c-3cc3cc(-c4cnc([C@@H]5CCCN5C(=O)[C@@H](NC(=O)OC)C(C)C)[nH]4)ccc32)[nH]1 (single isomer, unassigned) [Compound 39] | 3380 pM | 910 pM |  |  | 1.7 pM | 1.4 pM |  | 
CCO[C@H](C)[C@H](NC(=O)OC)C(=O)N1CCC[C@H]1c1ncc(-c2cc(F)c3c(c2)OC(c2ccc4c(c2)OCCC4)n2c-3cc3cc(-c4cnc([C@@H]5CCCN5C(=O)[C@@H](NC(=O)OC)C(C)C)[nH]4)ccc32)[nH]1 (single isomer, unassigned) [Compound 40] | 107 pM | 86 pM | 2.1 pM | 2.2 pM |  |  |  | 
COC(=O)NC(C(=O)N1CCC[C@H]1c1ncc(-c2ccc3c(c2)cc2n3C(c3ccc4c(c3)OCCC4)Oc3cc(-c4cnc([C@@H]5CCCN5C(=O)[C@@H](NC(=O)OC)C(C)C)[nH]4)cc(F)c3-2)[nH]1)C1CCO[C@H](C)C1 (single isomer, unassigned) [Compound 94] | 6 pM | 4 pM | 2.3 pM | 3.3 pM |  |  |  | 
COC(=O)N[C@H](C(=O)N1CCC[C@H]1c1ncc(-c2cc(F)c3c(c2)OC(c2ccc4c(c2)CCCO4)n2c-3cc3cc(-c4cnc([C@@H]5CCCN5C(=O)[C@@H](NC(=O)OC)C5CCOCC5)[nH]4)ccc32)[nH]1)C(C)C (single isomer, unassigned) [Compound 35] | 61 pM |  |  |  | 3.4 pM | 1.2 pM | 258 pM | 
CCN(CC)[C@@H](C(=O)N1[C@@H]2C[C@@H]2C[C@H]1c1ncc(-c2ccc3c(c2)cc2n3C(c3ccc4c(c3)OCCC4)Oc3cc(-c4cnc([C@@H]5CCCN5C(=O)[C@@H](NC(=O)OC)C5CCOCC5)[nH]4)cc(F)c3-2)[nH]1)c1ccccc1 (single isomer, unassigned) [Compound 54] |  | 11 pM |  |  | 4.9 pM | 2.4 pM |  | 8 pM
COC(=O)N[C@H](C(=O)N1CCC[C@H]1c1ncc(-c2cc(F)c3c(c2)OC(c2ccc4c(c2)OCCC4)n2c-3cc3cc(-c4cnc([C@@H]5CCCN5C(=O)[C@@H](NC(=O)OC)C5CCOCC5)[nH]4)ccc32)[nH]1)C(C)C (single isomer, unassigned) [Compound 31] | 322 pM | 98 pM |  |  | 1.5 pM | 2.2 pM |  | 
COC(=O)N[C@H](C(=O)N1CCC[C@H]1c1ncc(-c2cc(F)c3c(c2)OC(c2ccc4c(c2)OCCC4C)n2c-3cc3cc(-c4cnc([C@@H]5CCCN5C(=O)[C@@H](NC(=O)OC)C(C)C)[nH]4)ccc32)[nH]1)C(C)C (single isomer, unassigned) [Compound 10] | 39 pM | 41 pM | 2.4 pM | 1.2 pM |  |  |  | 
COC(=O)NC(C(=O)N1CCC[C@H]1c1ncc(-c2ccc3c(c2)cc2n3C(c3ccc4c(c3)OCCC4)Oc3cc(-c4cnc([C@@H]5CCCN5C(=O)[C@@H](NC(=O)OC)C(C)C)[nH]4)cc(F)c3-2)[nH]1)C1CCOC(C)(C)C1 (single isomer, unassigned) [Compound 80] | 24 pM | 6 pM | 2.6 pM | 3.2 pM |  |  |  | 
COC(=O)N[C@H](C(=O)N1CCC[C@H]1c1ncc(-c2cc(F)c3c(c2)OC(c2ccc4c(c2)OC(C)CC4)n2c-3cc3cc(-c4cnc([C@@H]5CCCN5C(=O)[C@@H](NC(=O)OC)C(C)C)[nH]4)ccc32)[nH]1)C(C)C (single isomer, unassigned) [Compound 13] | 106 pM | 144 pM | 2.3 pM |  |  | 3.2 pM |  | 
COC(=O)NC(C(=O)N1CCC[C@H]1c1ncc(-c2ccc3c(c2)cc2n3C(c3ccc4c(c3)OCCC4)Oc3cc(-c4cnc([C@@H]5CCCN5C(=O)[C@@H](NC(=O)OC)C(C)C)[nH]4)cc(F)c3-2)[nH]1)C1CCOC(C)(C)C1 (single isomer, unassigned) [Compound 79] | 6 pM |  |  |  | 1.7 pM | 2.7 pM | 7 pM | 
COC(=O)NC(C(=O)N1[C@@H]2C[C@@H]2C[C@H]1c1ncc(-c2ccc3c(c2)cc2n3C(c3ccc4c(c3)OCCC4)Oc3cc(-c4cnc([C@@H]5CCCN5C(=O)[C@@H](NC(=O)OC)C(C)C)[nH]4)cc(F)c3-2)[nH]1)C1CCO[C@H](C)C1 (single isomer, unassigned) [Compound 82] | 3 pM | 4 pM | 1.7 pM |  |  | 2.1 pM |  | 
COC(=O)N[C@H](C(=O)N1CCC[C@H]1c1ncc(-c2ccc3c(c2)cc2n3C(c3ccc4c(c3)OCCC4)Oc3cc(-c4cnc([C@@H]5CCCN5C(=O)[C@@H](NC(=O)OC)C5CCOCC5)[nH]4)cc(F)c3-2)[nH]1)C(C)C (single isomer, unassigned) [Compound 33] | 598 pM | 114 pM |  |  | 1.8 pM | 2.1 pM |  | 
COC(=O)N[C@H](C(=O)N1CCC[C@H]1c1ncc(-c2cc(F)c3c(c2)OC(c2ccc4c(c2)OC(C)CC4)n2c-3cc3cc(-c4cnc([C@@H]5CCCN5C(=O)[C@@H](NC(=O)OC)C(C)C)[nH]4)ccc32)[nH]1)C(C)C (single isomer, unassigned) [Compound 14] | 119 pM | 163 pM | 1.8 pM | 2.6 pM |  |  |  | 
COC(=O)N[C@H](C(=O)N1CCC[C@H]1c1ncc(-c2cc(F)c3c(c2)OC(c2ccc4c(c2)CCCO4)n2c-3cc3cc(-c4cnc([C@@H]5CCCN5C(=O)[C@@H](NC(=O)OC)C(C)C)[nH]4)ccc32)[nH]1)C(C)C (single isomer, unassigned) [Compound 24] | 282 pM | 1770 pM | 1.6 pM |  |  |  |  | 
COC(=O)NC(C(=O)N1CCC[C@H]1c1ncc(-c2ccc3c(c2)cc2n3C(c3ccc4c(c3)OCCC4)Oc3cc(-c4cnc([C@@H]5CCCN5C(=O)[C@@H](NC(=O)OC)C(C)C)[nH]4)cc(C)c3-2)[nH]1)C1C[C@@H](C)O[C@@H](C)C1 (single isomer, unassigned) [Compound 85] | 575 pM | 70 pM |  |  | 2.7 pM |  |  | 
COC(=O)N[C@H](C(=O)N1CCC[C@H]1c1ncc(-c2cc(F)c3c(c2)OC(c2ccc4c(c2)CCCO4)n2c-3cc3cc(-c4cnc([C@@H]5CCCN5C(=O)[C@@H](NC(=O)OC)C5CCOCC5)[nH]4)ccc32)[nH]1)C(C)C (single isomer, unassigned) [Compound 36] | 426 pM | 416 pM | 2.1 pM |  |  |  |  | 
COC(=O)N[C@H](C(=O)N1CCC[C@H]1c1ncc(-c2cc(F)c3c(c2)OC(c2ccc4c(c2)OC(C)CC4)n2c-3cc3cc(-c4cnc([C@@H]5CCCN5C(=O)[C@@H](NC(=O)OC)C(C)C)[nH]4)ccc32)[nH]1)C(C)C (single isomer, unassigned) [Compound 12] | 6730 pM | 1900 pM | 1.6 pM |  |  |  |  | 
